Results: patent US12319664B2, “Herbicidally active 3-phenylisoxazoline-5-carboxamides of cyclopentenylcarboxylic acid derivatives” (Bayer Aktiengesellschaft, priority 2018, dated 2025)

Columns and labels:
LOLRI [1] = assay: Pre-emergence herbicidal action against LOLRI; type: in vivo, Lolium rigidum; settings: application rate 80 g/ha, scored visually after about 3 weeks vs untreated controls (100% = plants have died, 0% = like control plants)
How it was run: (§1)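 Compounds, as wettable powders or emulsion concentrates diluted in water plus 0.5% additive, go onto the soil over freshly sown seeds at 600 l/ha. Greenhouse incubation follows. Scoring is visual, in %, at ~3 weeks.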

PHBPU [2] = assay: Post-emergence herbicidal action against PHBPU; type: in vivo, Pharbitis purpurea; settings: application rate 80 g/ha, rated visually about 3 weeks after treatment
How it was run: (§2)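 Aqueous suspensions or emulsions of WP/EC formulations containing 0.5% additive are sprayed at 600 l/ha onto plants at the one-leaf stage. After about 3 weeks in the greenhouse, activity is rated by eye versus untreated controls.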

MATIN [3] = assay: Pre-emergence herbicidal action against MATIN; type: in vivo, Matricaria inodora; settings: application rate 80 g/ha, scored visually after about 3 weeks vs untreated controls (100% = plants have died, 0% = like control plants)
Excerpt: (§3) 1. Pre-emergence herbicidal action against harmful plants and crop plant compatibility Seeds of monocotyledonous and dicotyledonous weed plants and crop plants are placed in plastic or wood-fibre pots and covered with soil. The compounds of the invention, formulated in the form of wettable powders (WP) or as emulsion concentrates (EC), are then applied onto the surface of the covering soil as aqueous suspension or emulsion with addition of 0.5% additive at a water application rate of 600 l/ha (converted). After the treatment, the pots are placed in a greenhouse and kept under good growth conditions for the trial plants. After about 3 weeks, the effect of the preparations is scored visually in comparison with untreated controls as percentages. For example, 100% activity=the plants have died, 0% activity=like control plants. [table]

AMARE [4] = assay: Post-emergence herbicidal action against AMARE; type: in vivo, Amaranthus retroflexus; settings: application rate 80 g/ha, rated visually about 3 weeks after treatment
How it was run: as §2

HORMU [5] = assay: Post-emergence herbicidal action against HORMU; type: in vivo, Hordeum murinum; settings: application rate 80 g/ha
How it was run: as §2

LOLRI [6] = assay: Post-emergence herbicidal action against LOLRI; type: in vivo, Lolium rigidum; settings: application rate 80 g/ha, rated visually after about 3 weeks
How it was run: as §2

ECHCG [7] = assay: Pre-emergence herbicidal action against ECHCG; type: in vivo, Echinochloa crus-galli; settings: application rate 80 g/ha, scored visually after about 3 weeks vs untreated controls (100% = plants have died, 0% = like control plants)
How it was run: as §1

ABUTH [8] = assay: Pre-emergence herbicidal action against ABUTH; type: in vivo, Abutilon theophrasti; settings: application rate 80 g/ha, scored visually after about 3 weeks vs untreated controls (100% = plants have died, 0% = like control plants)
Excerpt: as §3

AVEFA [9] = assay: Post-emergence herbicidal action against AVEFA; type: in vivo, Avena fatua; settings: application rate 80 g/ha, rated visually after about 3 weeks
How it was run: as §2

STEME [10] = assay: Pre-emergence herbicidal action against STEME; type: in vivo, Stellaria media; settings: application rate 80 g/ha
How it was run: as §1

MATIN [11] = assay: Post-emergence herbicidal action against MATIN; type: in vivo, Matricaria inodora; settings: application rate 80 g/ha, rated visually about 3 weeks after treatment
How it was run: as §2

STEME [12] = assay: Post-emergence herbicidal action against STEME; type: in vivo, Stellaria media; settings: application rate 80 g/ha, rated visually about 3 weeks after treatment
How it was run: as §2

VERPE [13] = assay: Post-emergence herbicidal action against VERPE; type: in vivo, Veronica persica; settings: application rate 80 g/ha
How it was run: as §2

SETVI [14] = assay: Post-emergence herbicidal action against SETVI; type: in vivo, Setaria viridis; settings: application rate 80 g/ha, rated visually after about 3 weeks
How it was run: as §2

PHBPU [15] = assay: Pre-emergence herbicidal action against PHBPU; type: in vivo, Pharbitis purpurea; settings: application rate 80 g/ha
How it was run: as §1

VERPE [16] = assay: Pre-emergence herbicidal action against VERPE; type: in vivo, Veronica persica; settings: application rate 80 g/ha
How it was run: as §1

SETVI [17] = assay: Pre-emergence herbicidal action against SETVI; type: in vivo, Setaria viridis; settings: application rate 80 g/ha, scored visually after about 3 weeks vs untreated controls (100% = plants have died, 0% = like control plants)
How it was run: as §1

VIOTR [18] = assay: Post-emergence herbicidal action against VIOTR; type: in vivo, Viola tricolor; settings: application rate 80 g/ha, rated visually about 3 weeks after treatment
How it was run: as §2

ABUTH [19] = assay: Post-emergence herbicidal action against ABUTH; type: in vivo, Abutilon theophrasti; settings: application rate 80 g/ha, rated visually about 3 weeks after treatment
How it was run: as §2

ALOMY [20] = assay: Pre-emergence herbicidal action against ALOMY; type: in vivo, Alopecurus myosuroides; settings: application rate 80 g/ha, scored visually after about 3 weeks vs untreated controls (100% = plants have died, 0% = like control plants)
How it was run: as §1

ECHCG [21] = assay: Post-emergence herbicidal action against ECHCG; type: in vivo, Echinochloa crus-galli; settings: application rate 80 g/ha, rated visually after about 3 weeks
How it was run: as §2

VIOTR [22] = assay: Pre-emergence herbicidal action against VIOTR; type: in vivo, Viola tricolor; settings: application rate 80 g/ha
How it was run: as §1

AVEFA [23] = assay: Pre-emergence herbicidal action against AVEFA; type: in vivo, Avena fatua; settings: application rate 80 g/ha, scored visually after about 3 weeks vs untreated controls (100% = plants have died, 0% = like control plants)
How it was run: as §1

POLCO [24] = assay: Pre-emergence herbicidal action against POLCO; type: in vivo, Polygonum convolvulus; settings: application rate 80 g/ha
How it was run: as §1

HORMU [25] = assay: Pre-emergence herbicidal action against HORMU; type: in vivo, Hordeum murinum; settings: application rate 80 g/ha
How it was run: as §1

POLCO [26] = assay: Post-emergence herbicidal action against POLCO; type: in vivo, Polygonum convolvulus; settings: application rate 80 g/ha, rated visually about 3 weeks after treatment
How it was run: as §2

AMARE [27] = assay: Pre-emergence herbicidal action against AMARE; type: in vivo, Amaranthus retroflexus; settings: application rate 80 g/ha
How it was run: as §1

ALOMY [28] = assay: Post-emergence herbicidal action against ALOMY; type: in vivo, Alopecurus myosuroides; settings: application rate 80 g/ha, rated visually after about 3 weeks
How it was run: as §2

CYPES = assay: Pre-emergence herbicidal action against CYPES; type: in vivo; settings: application rate 80 g/ha, scored visually after about 3 weeks vs untreated controls (100% = plants have died, 0% = like control plants)
Excerpt: as §3, with “plants.” for “plants. [table]”

Compound | Herbicidal action against [%] LOLRI (LOLRI [1]) [%] | Herbicidal action against [%] PHBPU (PHBPU [2]) [%] | Herbicidal action against [%] MATIN (MATIN [3]) [%] | Herbicidal action against [%] AMARE (AMARE [4]) [%] | Herbicidal action against [%] HORMU (HORMU [5]) [%] | Herbicidal action against [%] LOLRI (LOLRI [6]) [%] | Herbicidal action against [%] ECHCG (ECHCG [7]) [%] | Herbicidal action against [%] ABUTH (ABUTH [8]) [%] | Herbicidal action against [%] AVEFA (AVEFA [9]) [%] | Herbicidal action against [%] STEME (STEME [10]) [%] | Herbicidal action against [%] MATIN (MATIN [11]) [%] | Herbicidal action against [%] STEME (STEME [12]) [%] | Herbicidal action against [%] VERPE (VERPE [13]) [%] | Herbicidal action against [%] SETVI (SETVI [14]) [%] | Herbicidal action against [%] SETVI (SETVI [17]) [%] | Herbicidal action against [%] ALOMY (ALOMY [20]) [%] | Herbicidal action against [%] VIOTR (VIOTR [22]) [%] | Herbicidal action against [%] AVEFA (AVEFA [23]) [%] | Herbicidal action against [%] POLCO (POLCO [24]) [%] | Herbicidal action against [%] AMARE (AMARE [27]) [%] | also measured
C=CC1(C(=O)NC2C=CC(C(=O)OC)C2)CC(c2cc(F)cc(F)c2)=NO1 (stereo not drawn) [Example I-012] | 100 | 90 | 90 | 90 | 100 | 90 | 100 | 90 | 100 | 100 | 90 | 80 | 80 | 90 | 100 | 100 | 90 | 90 | 90 | 100 | Herbicidal action against [%] PHBPU (PHBPU [15]): 90%; Herbicidal action against [%] VERPE (VERPE [16]): 100%; Herbicidal action against [%] VIOTR (VIOTR [18]): 80%; Herbicidal action against [%] ABUTH (ABUTH [19]): 80%; Herbicidal action against [%] ECHCG (ECHCG [21]): 90%; Herbicidal action against [%] HORMU (HORMU [25]): 90%; Herbicidal action against [%] POLCO (POLCO [26]): 80%; Herbicidal action against [%] ALOMY (ALOMY [28]): 90%
CC1(C(=O)NC2C=CC(C(=O)NS(=O)(=O)C(F)(F)F)C2)CC(c2cccc(F)c2)=NO1 (mixture of isomers) [II-16] | 100 | – | 80 | – | – | 80 | 100 | – | – | 100 | – | – | – | 80 | 80 | 100 | 80 | 80 | 90 | 90 | Herbicidal action against [%] CYPES (CYPES): 100%
C=CC1(C(=O)NC2C=CC(C(=O)OCC)C2)CC(c2cc(F)cc(F)c2)=NO1 (stereo not drawn) [Example I-013] | 100 | 80 | 100 | 80 | 90 | 90 | 100 | 90 | 90 | 100 | 90 | 80 | 80 | 90 | 100 | 100 | 100 | 100 | 90 | 100 | Herbicidal action against [%] PHBPU (PHBPU [15]): 90%; Herbicidal action against [%] VERPE (VERPE [16]): 90%; Herbicidal action against [%] VIOTR (VIOTR [18]): 80%; Herbicidal action against [%] ABUTH (ABUTH [19]): 80%; Herbicidal action against [%] ECHCG (ECHCG [21]): 80%; Herbicidal action against [%] HORMU (HORMU [25]): 100%; Herbicidal action against [%] POLCO (POLCO [26]): 90%; Herbicidal action against [%] ALOMY (ALOMY [28]): 80%
